Our source for the mass density, Normal boiling temperature and refractive index values is the NIST ThermoML archive (doi:10.1021/acs.jced.6b00471).

Numbers after ± are expanded uncertainties.

For data set [1] the following is noted: Liquid; for mass density: 298.15 K, 101.33 kPa, Pycnometric method; for Normal boiling temperature: Ebulliometric method (Recirculating still).
Data set [2] is described as follows: refractive index (Na D-line) (dimensionless). The note with it: 298.15 K; 101.33 kPa; Liquid; Standard Abbe refractometry.

For orientation: mass density means mass per unit of volume. What is called refractive index is a measure of how strongly the sample bends light. Take `CCC(C)OC(C)=O` (stereo not given) [1-methylpropyl ethanoate]: in data set [1], the mass density is given as 863.8 ± 0.8 kg/m3 and the Normal boiling temperature was 111.97 ± 0.2 °C. In data set [2], the refractive index was 1.3872 ± 0.0007.
On to `CC(C)CO` [2-methyl-1-propanol], for which, in data set [1], the mass density worked out at 797.4 ± 0.7 kg/m3 and the Normal boiling temperature was 107.68 ± 0.2 °C. The refractive index in data set [2] was determined as 1.3931 ± 0.0007.
Take `CC(C)(C)O` [2-methylpropan-2-ol]: the Normal boiling temperature in data set [1] came to 82.36 ± 0.2 °C. Further, the refractive index in data set [2] was 1.3857 ± 0.0007.
On to `CCCCO` [butan-1-ol], for which the mass density in data set [1] amounted to 805.8 ± 0.7 kg/m3. Also, the refractive index in data set [2] worked out at 1.397 ± 0.0007.
